Reference: patent US20100298385A1, “PROTEIN KINASE INHIBITORS USEFUL FOR TREATMENT OF CANCERS” (priority 2007, published 2010)

Experiments:
Format in all cases: cell-based
[1] = tested on: cancer cells; assay: MTT test, positive controls on the different cells; details: at 0.4, 0.8, 1.6, 3.2, and 6.4 μm/L
Description: (§1) Cell incubation: the cancer cells strains are incubated in RPMI 1640 with 10% FBS, grow along the wall at 37° C. under 5% CO2 incubator.
(§2) Sample solutions: First prepare material at 100 mM in DMSO, then diluted to DMSO 4.95% using 3% DMSO FBS solution.
(§3) MTT test: cancer cells are incubated at a density of 5×10^3 cells/well in 96 well cell Culture plate for 24 hours, then added different sample solutions for 72 hours. At the end of incubation, 5 mg/mL MTT 15 μL was added to each well and stayed for 4 hours, vacuumed the solution, added DMSO 150 μL, shaked for 10 minutes, tested at […] for the OD value in the spectrophotometer, and calculated the inhibition rate of cell proliferation.
(§4) Inhibition rate of cell proliferation=(control OD−sample OD)/control OD)*100%

[2] = tested on: HepG-2; assay: MTT test, inhibition of cell proliferation; details: Homo sapiens, HepG2, 72 hours
Description: as §1, §2, §3, §4

[3] = tested on: K562; assay: MTT test, inhibition of cell proliferation; details: Homo sapiens, 72 hours
Description: as §1, §2, §3, §4

[4] = tested on: MCF-7; assay: MTT test, inhibition of cell proliferation; details: Homo sapiens, MCF7, 72 h
Description: as §1, §2, §3, §4

[5] = tested on: KB; assay: MTT test, inhibition of cell proliferation; details: Homo sapiens, 72 h
Description: as §1, §2, §3, §4

[6] = tested on: L929; assay: MTT test, inhibition of cell proliferation; details: Mus musculus, 72 hours
Description: as §1, §2, §3, §4

[7] = tested on: A431; assay: MTT test, inhibition of cell proliferation; details: Homo sapiens, A-431, 72 hours
Description: as §1, §2, §3, §4

[8] = tested on: Bel-7402; assay: MTT test, inhibition of cell proliferation; details: Homo sapiens, 72 hours
Description: as §1, §2, §3, §4

[9] = tested on: BGC-823; assay: MTT test, inhibition of cell proliferation; details: Homo sapiens, 72 hours
Description: as §1, §2, §3, §4

[10] = tested on: HL-60; assay: MTT test, inhibition of cell proliferation; details: Homo sapiens, 72 hours
Description: as §1, §2, §3, §4

[11] = tested on: A375s-2; assay: MTT test, inhibition of cell proliferation; details: A375-S2, 72 hours
Description: as §1, §2, §3, §4

[12] = tested on: A549; assay: MTT test, inhibition of cell proliferation; details: Homo sapiens, 72 hours
Description: as §1, §2, §3, §4

[13] = tested on: U937; assay: MTT test, inhibition of cell proliferation; details: Homo sapiens, U-937, 72 hours
Description: as §1, §2, §3, §4

[14] = tested on: Hela; assay: MTT test, inhibition of cell proliferation; details: Homo sapiens, 72 hours
Description: as §1, §2, §3, §4

Row | IC50 [3] | IC50 ([4]; MCF-7, first listing (r2)) | IC50 ([4]; MCF-7, second listing (r6)) | IC50 ([5]; first listing (r12)) | IC50 ([5]; second listing (r16)) | IC50 [7] | IC50 [8] | IC50 [9] | IC50 [10] | IC50 [11] | IC50 [12] | IC50 [13] | IC50 [14] | Compound | inhibition for the different cells [1] | IC50 [2] | IC50 [6]
1 | – | – | – | – | – | – | – | – | – | – | – | – | – | O=P1(N(CCCl)CCCl)NCCCO1 (centres unmarked) [CYC, cyclophosphamide] | dose-dependent | – | –
2 | 31 to 50 µM | ≤ 10 µM | ≤ 10 µM | 11 to 30 µM | 11 to 30 µM | 11 to 30 µM | ≤ 10 µM | 11 to 30 µM | 11 to 30 µM | 31 to 50 µM | 31 to 50 µM | 11 to 30 µM | 31 to 50 µM | CNC(=O)c1cc(Oc2ccc(NC(=O)Nc3nc(C)c(C(C)(C)C)s3)cc2)ccn1 [Compound A, 4-{4-[3-(5-tert-Butyl-4-methyl-thiazol-2-yl)-ureido]-phenoxy}-pyridine-2-carboxylic acid methylamide] | – | 11 to 30 µM | 31 to 50 µM
3 | 31 to 50 µM | 31 to 50 µM | 11 to 30 µM | 31 to 50 µM | 11 to 30 µM | 11 to 30 µM | ≤ 10 µM | 11 to 30 µM | ≤ 10 µM | 11 to 30 µM | 31 to 50 µM | ≤ 10 µM | 11 to 30 µM | CNC(=O)c1cc(Oc2ccc(CC(=O)Nc3ccc(Cl)c(C(F)(F)F)c3)cc2)ccn1 [Compound C, 4-(4-[(4-chloro-3-trifluoromethylphenylaminocarbonyl)-methyl]phenoxy)pyridin-2-carboxylic acid methylamide] | – | 11 to 30 µM | 31 to 50 µM
4 | – | – | – | – | – | – | – | – | – | – | – | – | – | CC(=O)O[C@H]1C(=O)[C@@]2(C)[C@H]([C@H](OC(=O)c3ccccc3)[C@]3(O)C[C@H](OC(=O)[C@H](O)[C@@H](NC(=O)c4ccccc4)c4ccccc4)C(C)=C1C3(C)C)[C@]1(OC(C)=O)CO[C@@H]1C[C@@H]2O [Paclitaxel] | dose-dependent | – | –
